From paper PMC11044963, “Probing the CRL4^DCAF12 interactions with MAGEA3 and CCT5 di-Glu C-terminal degrons” (PNAS Nexus, 2024)
Entries after “also recorded” stand apart in the source; their conditions may differ. Where no end group is shown, it is not given here.

Columns and labels:
DCAF12-DDB1 = molecular target: T1, DCAF12-DDB1 (Homo sapiens, UniProt Q16531+Q5T6F0); test: FP direct peptide binding, DDB1–DCAF12 complex; conditions: for Kd range, FP direct binding: DDB1–DCAF12, FITC-labeled peptide
T1 construct: Despite our attempts to express and purify the full-length (FL) DCAF12 in isolation; made in house; host or cells: Spodoptera frugiperda Sf9 (baculovirus co-expression)
Text: (§1) To further characterize DCAF12 binding to MAGEA3 and CCT5 degrons, we developed a fluorescence polarization (FP)-based peptide binding and displacement assay in vitro. We designed small N-terminal fluorescein isothiocyanate (FITC)-labeled peptides harboring 11 C-terminal residues of MAGEA3 ([…]) and nine from CCT5 ([…]), both carrying the known -EE degron.
(§2) DCAF12 constructs were subcloned from Mammalian Gene Collection (MGC) stock BC063823 into baculovirus expression vector pFBOH-MHL. For co-expression with DCAF12, DDB1 (MGC stock […]) and DDA1 (MGC stock BC000615) were subcloned into pFBOH-LIC vector lacking any protein tags. For testing DDB1-FL direct binding to peptides on FP assay, the protein was expressed using pFBOH-MHL vector with His-tag. All protein constructs were expressed in Spodoptera frugiperda (Sf9), as previously described ([37]).
(§3) FP-binding assays were performed using 20 mM Tris pH 7.5, 150 mM NaCl, 5% glycerol, 0.5 mM TCEP, and 0.01% Triton buffer. All tested proteins were titrated from an initial 4 µM highest concentration, followed by a factor two serial dilution. N-terminally labeled FITC peptides ([…] for MAGEA3, […] for CCT5, and […] for H3K9A) binding to proteins was tested at 20 nM final concentration. The assay was incubated for 45 min at room temperature, and plates were read using BioTek Synergy 4 (BioTek) plate reader. Prior to displacement assay, proteins at binding Kd concentration were mixed with FITC peptides at 20 nM final concentration. Displacement was evaluated by using a titration curve of unlabeled peptide, with 40 µM as the highest concentration. Buffer, incubation time, and reading conditions followed FP-binding protocol. All FP analyses were performed in triplicates and, at least, two independent experiments. All Kd and KDISP values were calculated using GraphPad Prism version 9.0.

DCAF12 = test: NanoBRET with full-length proteins, DCAF12; format: cell-based, human; conditions: HEK293T cells; FL protein
Text: (§4) To further investigate the DCAF12 interaction with MAGEA3 and CCT5 in cells, we developed a NanoBRET assay, which measures the interaction of […] FL MEAGEA3/CCT5 or C-terminal peptide containing degron sequences ([…]/[…], respectively). When donor and acceptor proteins are in close proximity, the donor excites the acceptor, which then emits fluorescence, allowing for direct measurement of protein–protein interaction in cells.
(§5) HEK293T cells were plated in 96-well plates (2 × 10^4/well) and 4 h later transfected with 0.03 µg/well N-terminally HT-tagged DCAF12 (WT or mutants) or HT alone and 0.001 µg/well N-terminally NL-tagged CCT5 and MAGEA3 (FL or -EE degrons) using X-tremeGene HP transfection reagent (Roche), following the manufacturer's instructions. […] Four hours later, 10 µL of NanoBRET Nano-Glo Substrate solution (8 µL/mL Nano-Glo substrate (Promega) diluted in DMEM/F12 no phenol red, supplemented with 4% FBS, penicillin 100 U/mL, and streptomycin 100 µg/mL) was added, and the signal was read. Donor emission at 450 nm (filter: 450 nm/BP 80 nm) and acceptor emission at 618 nm (filter: 610 nm/LP) were measured within 10 min of substrate addition using CLARIOstar microplate reader (Mandel). […]

[1] = tested on: DCAF12 mutants K91A, K108A, R203A, R256A, R344A; test: NanoBRET with full-length proteins, DCAF12 mutants; format: cell-based, human; conditions: HEK293T cells; FL protein or degron as stated; DCAF12 mutations vs WT
Text: Fig. 2. Conserved arginine and lysine residues near DCAF12 central channel participate in MAGEA3 binding in cells. A) DCAF12 electrostatic surface potential analysis showing negatively and positively charged residues colored in red and blue, respectively. On the left, DDB1 contacting surface of DCAF12. On the right, substrate contacting surface with positively charged residues—Arg203, Arg256, and Arg344—highlighted as sticks. Electrostatic potential is shown on a scale of −10 (red) kT/e to 10 (blue). B) Conservation analysis of DCAF12 showing high conservation of the same positively charged residues (represented as sticks) among homologous sequences. Residues were colored on a scale from variable/low conservation (dark teal) to high conservation (magenta). […]
as §5, with “read.” for “read. Donor emission at 450 nm (filter: 450 nm/BP 80 nm) and acceptor emission at 618 nm (filter: 610 nm/LP) were measured within 10 min of substrate addition using CLARIOstar microplate reader (Mandel).”

DCAF12 R203A/R244A = test: NanoBRET with -EE degrons, second DCAF12 double arginine mutant; format: cell-based, human; conditions: HEK293T cells; HT-tagged DCAF12 mutant, NL-tagged degron; vs WT
Text: as §4
(§6) Therefore, we used site-directed mutagenesis to generate two DCAF12 mutants in the central pocket of the WDR domain: R203A/R256A and R203A/R244A. DCAF12 wild-type (WT) and mutant interactions with MAGEA3 and CCT5 degron peptides were tested in a NanoBRET proximity-based assay (Fig. 2C).
as §5, with “read.” for “read. Donor emission at 450 nm (filter: 450 nm/BP 80 nm) and acceptor emission at 618 nm (filter: 610 nm/LP) were measured within 10 min of substrate addition using CLARIOstar microplate reader (Mandel).”

DCAF12 R203A/R256A = test: NanoBRET with -EE degrons, DCAF12 R203A/R256A mutant; format: cell-based, human; conditions: HEK293T cells; HT-tagged DCAF12 R203A/R256A, NL-tagged degron; vs WT
Text: as §4, §6
as §5, with “read.” for “read. Donor emission at 450 nm (filter: 450 nm/BP 80 nm) and acceptor emission at 618 nm (filter: 610 nm/LP) were measured within 10 min of substrate addition using CLARIOstar microplate reader (Mandel).”

DCAF12-DDB1-DDA1 = molecular target: T2, DCAF12-DDB1-DDA1 (Homo sapiens, UniProt Q16531+Q5T6F0+Q9BW61); test: FP direct peptide binding, DDB1–DCAF12–DDA1 complex; conditions: for Kd range, FP direct binding: DDB1–DCAF12–DDA1, FITC-labeled peptide
T2 construct: Despite our attempts to express and purify the full-length (FL) DCAF12 in isolation; made in house; host or cells: Spodoptera frugiperda Sf9 (baculovirus co-expression)
Text: as §1, §2, §3

[2] = molecular target: T3, biotinylated DCAF12 (Δ1–78) (Homo sapiens, UniProt Q5T6F0); test: SPR peptide binding, biotinylated DCAF12 (Δ1–78); conditions: unlabeled peptide, 15 °C, 1:1 Langmuir; for koff: dissociation phase 200 s; for koff / kon: HEPES pH 7.4, 2% DMSO, Fig. 1D, E; for kon: injected 120 s at 30 μL/min
T3 construct: DCAF12:79-453aa; His6 with linker ([…]) (C); made in house; host or cells: Sf9 cells (baculovirus, pFBD-BirA vector)
Protocol: For SPR experiments, DCAF12 Δ1–78 sequence was subcloned into pFBD-BirA vector, expressed in sf9 cells, and purified as described (Table S2). Biotinylated DCAF12 (Δ1–78) was immobilized to a level of ∼3,200 RU on a Biacore Series S streptavidin chip (Cytiva BR100531) using a Biacore 8K+ (Cytiva). Experiments were performed in a running buffer of 10 mM 4-(2-hydroxyethyl)-1-piperazineethanesulfonic acid (HEPES), pH 7.4, 150 mM NaCl (Cytiva BR-1006-70), 3 mM EDTA (Corning 46-034-CI), 0.005% P20 (Cytiva BR-1000-54), 5% Glycerol (Sigma G5516-1L), and 2% DMSO (Millipore Sigma MX1457-6). CCT5 and MAGEA3 peptides were injected over a period of 120 s at 30 μL/min followed by a dissociation phase of 200 s in an 8-point 2-fold dilution series with a top concentration of 1 μM. All steps were carried out at 15 °C. Reference and buffer-blank subtracted data were analyzed with the Biacore 8K Evaluation Software and fit to a 1:1 Langmuir model to obtain binding kinetics and KD values.

DCAF12 (Δ1–78) = molecular target: T4, DCAF12 (Δ1–78) (Homo sapiens, UniProt Q5T6F0); test: FP direct peptide binding, DCAF12 (Δ1–78); conditions: FITC-labeled peptide
T4 construct: DCAF12:79-453aa; His6-TEV site ([…]) (N); made in house; host or cells: Spodoptera frugiperda Sf9 (baculovirus)
Text: as §1, §2
FP-binding assays were performed using 20 mM Tris pH 7.5, 150 mM NaCl, 5% glycerol, 0.5 mM TCEP, and 0.01% Triton buffer. […] The assay was incubated for 45 min at room temperature, and plates were read using BioTek Synergy 4 (BioTek) plate reader. […] Displacement was evaluated by using a titration curve of unlabeled peptide, with 40 µM as the highest concentration. Buffer, incubation time, and reading conditions followed FP-binding protocol. […] All Kd and KDISP values were calculated using GraphPad Prism version 9.0.

Substance	effect of DCAF12 mutation on interaction with degron, NanoBRET (DCAF12 R203A/R244A)	effect of DCAF12 mutation on interaction with degron, NanoBRET (DCAF12 R203A/R256A)	Kd range, FP direct binding (DCAF12-DDB1-DDA1)	koff [2]	kon [2]	Kd range, FP direct binding (DCAF12-DDB1)	Kd range, FP direct binding (DCAF12 (Δ1–78))	also measured
ARTKQTARASTGGK [H3K9A, reference compound]	–	–	–	–	–	–	–	FP binding of control peptide lacking -EE (DCAF12-DDB1; FITC-labeled peptide 20 nM, protein up to 4 µM, Tris pH 7.5, 45 min, room temperature, DCAF12-DDB1 complex per Fig. S2): did not show any binding
CCT5-FL: full-length T-complex protein 1 subunit epsilon protein	–	–	–	–	–	–	–	BRET signal over negative control (DCAF12): 3.6 fold; engagement with DCAF12 in cells, NanoBRET (DCAF12): low engagement; effect of DCAF12 mutations on interaction, NanoBRET [1]: no changes were observed; also recorded: little to no effect
IRKPGESEE [CCT5 degron]	significantly decreased	significantly decreased	–	–	–	–	–	–
IRKPGESEE [CCT5]	–	–	nanomolar range	0.017 s⁻¹	290000 M⁻¹ s⁻¹	nanomolar range	nanomolar range	Kd ([2]; 8-point 2-fold dilution from 1 μM, 10 mM HEPES pH 7.4, 150 mM NaCl, 3 mM EDTA, 0.005% P20, 5% glycerol, 2% DMSO, Table S1): 60 nM
LHEWVLREGEE [MAGEA3 degron]	significantly decreased	significantly decreased	–	–	–	–	–	–
LHEWVLREGEE [MAGEA3]	–	–	nanomolar range	0.06 s⁻¹	370000 M⁻¹ s⁻¹	nanomolar range	nanomolar range	Kd (DCAF12-DDB1-DDA1; FITC-labeled peptide 20 nM, protein 2-fold dilution from 4 µM, 20 mM Tris pH 7.5, 150 mM NaCl, 5% glycerol, 0.5 mM TCEP, 0.01% Triton, 45 min, room temperature, triplicates, at least two independent experiments): 60 nM
